{"source": "patent US6142972A", "about": "“Method and apparatus for the delivery of elongate solid drug compositions” (Delab, priority 1998, dated 2000)", "key": {"[1]": {"test": "Pharmacokinetics of SOMATULINE™ filament vs liquid solution in dogs (FIGS. 4A and 4B)", "type": "in vivo", "conditions": "dog, blood", "experimental": "FIGS. 4A and 4B are graphs showing the blood level in a dog of a somatostatin analog, SOMATULINE™ (BIM-23014C, Biomeasure, Milford Mass.) after implantation of a solid filament compared to a liquid solution of BIM-23014C.\nThe above protocol was performed by mixing 1.500 g of HEC and 8.500 g of water. 0.42250 g of the resulting gel was added to 0.06395 g of BIM 23014. The mixture was extruded through a […] (0.3 mm internal diameter needle), collected, and dried under vacuum for 24 hours. The dried filament contained 0.107 mg of BIM 23014/cm (weight percentage 50% HEC and 50% BIM 23014).\nThe filaments were tested for pharmacokinetics and compared to liquid infusions of the same dosage of SOMATULINE™ in dogs. The results are shown in the graphs in FIGS. 4A, 4B, and 5. […] However, the blood concentration decreased to less than 0.1 ng/ml within about 2 hours, to less than 0.001 within about 8 hours, and to about 0.0005 ng/ml in less than 12 hours. On the other hand, the blood concentration of SOMATULINE™ provided by the solid drug filament was at an almost constant level over 0.1 ng/ml for the first 10 hours, declined to about 0.002 ng/ml within 24 hours, and declined further to 0.0005 ng/ml by 72 hours."}, "[2]": {"conditions": "pure insulin, depending on purity; cited from earlier work"}}}
{"compound": "CC(C)[C@@H]1NC(=O)[C@H](CCCCN)NC(=O)[C@@H](Cc2c[nH]c3ccccc23)NC(=O)[C@H](Cc2ccc(O)cc2)NC(=O)[C@@H](NC(=O)[C@H](N)Cc2ccc3ccccc3c2)CSSC[C@@H](C(=O)N[C@H](C(N)=O)[C@@H](C)O)NC1=O", "note": "[SOMATULINE™]", "values": [{"measurement": "concentration at 10 h", "setting": "[1]; solid drug filament, first 10 hours, read-out: blood concentration of SOMATULINE™ (almost constant level)", "value": "> 0.1", "unit": "ng/mL"}, {"measurement": "concentration at 24 h", "setting": "[1]; solid drug filament, within 24 hours", "value": "~2", "unit": "pg/mL"}, {"measurement": "C0", "setting": "[1]; solution formulation, initial, read-out: blood concentration of SOMATULINE™, initial", "value": "~0.5", "unit": "ng/mL"}, {"measurement": "concentration at 2 h", "setting": "[1]; solution formulation, within about 2 hours", "value": "< 0.1", "unit": "ng/mL"}, {"measurement": "concentration at 8 h", "setting": "[1]; solution formulation, within about 8 hours", "value": "< 1", "unit": "pg/mL"}]}
{"compound": "recombinant human insulin: pure insulin, e.g., recombinant human insulin", "values": [{"measurement": "Insulin Units (IU) per mg", "setting": "[2]", "value": "26 to 28 Insulin Units (IU) per mg"}]}
